Test system: patients with moderate to severe symptomatic benign prostatic hyperplasia (BPH)
Assay: Prospective assessment of need for subsequent invasive surgical intervention in BPH patients after NX-1207 injection
Format: in vivo, human
Protocol: 645 patients (Group #1) with moderate to severe symptomatic benign prostatic hyperplasia (BPH) were prospectively randomly assigned to blinded treatment with a single therapeutic injection of NX-1207 or placebo (saline vehicle alone), and their clinical BPH signs and symptoms were assessed at weekly, monthly, 3-monthly or longer intervals, for durations of a few months to 5.5 years. None of these patients had received any prior invasive surgical procedures to treat their BPH condition. A prospective assessment was undertaken of all available subjects>=2 years after baseline to determine the usefulness of NX-1207 treatment for the prevention or the delay of the need for surgical procedures (i.e., subsequent invasive surgical intervention) to treat the patient's BPH condition. Patients who received placebo and no drug treatment progressed to invasive surgical procedures within 2 years of baseline in 7.65% of patients.
352 patients (Group #2) who were randomized and blindly treated with NX-1207 or placebo at the same time as Group #1 in Example 1, in addition to the initial treatment, were given a second treatment injection of NX-1207 at intervals of >=1 year after the initial randomization. None of these patients had received any prior invasive surgical procedures to treat their BPH condition. A prospective assessment was undertaken of all available subjects>=2 years after baseline to determine the usefulness of NX-1207 treatment for the prevention or the delay of the need for invasive surgical intervention to treat the patient's BPH condition.
Patients in Examples 1 and 2 were characterized as to whether they had previous treatment failures with conventional oral medications (i.e. “treatment failure”) vs whether they had not received any previous conventional oral medications for their BPH condition (i.e., “treatment naïve”). A prospective assessment was undertaken of all available subjects>=2 years after baseline to determine the usefulness of NX-1207 treatment for the prevention or the delay of the need for subsequent invasive surgical intervention to treat the patient's BPH condition.
In the above examples, the amount of NX-1207 administered was 2.5 mg.

IDQQVLSRIKLEIKRCL [NX-1207, NTP peptide injected once or twice (2.5 mg) in BPH patients]
improvement in reducing the need for subsequent invasive surgical intervention, compared to patients who received a single injection (administered twice): ~69% | improvement in reducing the need for subsequent invasive surgical intervention, compared to patients who received the placebo (administered twice): ~80% | need for subsequent invasive surgical intervention (previous treatment failure subjects, assessed >=2 years after baseline, treatment failure placebo 10.4%): 6.1% | rate of need for invasive surgical procedures (second injection >=1 year after initial randomization, assessed >=2 years after baseline, p<0.001 vs placebo 7.65%, p<0.01 vs single injection 5.1%): 1.6% | reduced rate of invasive surgical procedures within 2 years, compared to placebo (single therapeutic injection, 2.5 mg): 33.3% | patients progressed to invasive surgical procedures within 2 years of baseline (single therapeutic injection, 2.5 mg, BPH patients, no prior invasive surgery, placebo 7.65%): 5.1% | improvement in reducing the need for subsequent invasive surgical intervention, compared to patients who received the placebo (treatment naive patients): ~88% | improvement in reducing the need for subsequent invasive surgical intervention, compared to treatment failure patients who received the NTP peptide (treatment naive patients): ~85% | improvement in reducing the need for subsequent invasive surgical intervention, compared to treatment failure patients who received the placebo (treatment naive patients): ~91% | need for invasive surgical procedures (treatment naïve patients, assessed >=2 years after baseline, placebo controls 7.5%, p<0.01): 0.9%

From patent US11628202B2, “Methods of reducing the need for surgery in patients suffering from benign prostatic hyperplasia” (Nymox Corporation, priority 2015, dated 2023)
